Reference: patent US12365655B2, “Compounds” (CTXT PTY LTD, priority 2018, dated 2025)

Experiments:
TIP60-KAT5 = TIP60-KAT5 (Homo sapiens, UniProt Q92993); test: Acetyltransferase biochemical assay (AlphaScreen), KAT5
HBO-KAT7 = HBO-KAT7 (Homo sapiens, UniProt O95251); test: Acetyltransferase biochemical assay (AlphaScreen), KAT7
MOZ-KAT6A = MOZ-KAT6A (Homo sapiens, UniProt Q92794, A567V); test: Acetyltransferase biochemical assay (AlphaScreen), KAT6A
Chain of MOZ-KAT6A (Q92794 with tags, fused parts or gaps A567V): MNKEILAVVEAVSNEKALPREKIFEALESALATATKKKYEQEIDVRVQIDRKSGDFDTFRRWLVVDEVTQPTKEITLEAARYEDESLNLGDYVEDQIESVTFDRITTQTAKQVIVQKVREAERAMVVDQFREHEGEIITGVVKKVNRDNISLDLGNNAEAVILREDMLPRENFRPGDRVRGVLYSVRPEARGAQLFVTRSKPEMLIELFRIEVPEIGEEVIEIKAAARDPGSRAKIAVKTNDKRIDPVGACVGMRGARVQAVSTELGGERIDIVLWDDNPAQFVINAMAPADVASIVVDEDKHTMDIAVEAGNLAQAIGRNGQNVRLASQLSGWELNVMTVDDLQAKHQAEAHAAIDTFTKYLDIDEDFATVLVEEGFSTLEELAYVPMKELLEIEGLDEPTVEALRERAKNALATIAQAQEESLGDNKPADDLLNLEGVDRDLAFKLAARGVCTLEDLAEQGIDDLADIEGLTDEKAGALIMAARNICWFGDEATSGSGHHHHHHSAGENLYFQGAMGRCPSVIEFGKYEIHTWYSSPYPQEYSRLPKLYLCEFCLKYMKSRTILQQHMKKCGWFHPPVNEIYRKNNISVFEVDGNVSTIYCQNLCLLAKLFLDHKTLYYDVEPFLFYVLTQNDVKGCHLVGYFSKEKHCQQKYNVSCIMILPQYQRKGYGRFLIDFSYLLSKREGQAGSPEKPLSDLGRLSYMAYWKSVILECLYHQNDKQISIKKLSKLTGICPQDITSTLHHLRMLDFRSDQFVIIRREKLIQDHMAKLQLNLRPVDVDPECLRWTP

Chain of TIP60-KAT5 (Q92993 with tags, fused parts or gaps isoform Q92993-2): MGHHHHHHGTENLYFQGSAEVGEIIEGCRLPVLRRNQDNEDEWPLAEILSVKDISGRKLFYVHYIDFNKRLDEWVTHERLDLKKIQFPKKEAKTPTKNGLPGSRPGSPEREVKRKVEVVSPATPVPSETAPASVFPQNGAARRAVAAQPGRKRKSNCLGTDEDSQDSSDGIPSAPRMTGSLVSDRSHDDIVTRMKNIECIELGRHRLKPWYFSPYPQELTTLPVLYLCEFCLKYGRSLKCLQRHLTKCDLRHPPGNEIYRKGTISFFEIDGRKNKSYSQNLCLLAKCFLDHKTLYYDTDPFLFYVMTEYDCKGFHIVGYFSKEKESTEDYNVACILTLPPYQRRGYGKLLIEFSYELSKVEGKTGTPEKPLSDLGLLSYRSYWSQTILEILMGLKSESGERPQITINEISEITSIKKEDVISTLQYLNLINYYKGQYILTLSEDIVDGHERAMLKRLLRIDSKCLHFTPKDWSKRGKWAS
Chain of HBO-KAT7 (O95251 with tags, fused parts or gaps): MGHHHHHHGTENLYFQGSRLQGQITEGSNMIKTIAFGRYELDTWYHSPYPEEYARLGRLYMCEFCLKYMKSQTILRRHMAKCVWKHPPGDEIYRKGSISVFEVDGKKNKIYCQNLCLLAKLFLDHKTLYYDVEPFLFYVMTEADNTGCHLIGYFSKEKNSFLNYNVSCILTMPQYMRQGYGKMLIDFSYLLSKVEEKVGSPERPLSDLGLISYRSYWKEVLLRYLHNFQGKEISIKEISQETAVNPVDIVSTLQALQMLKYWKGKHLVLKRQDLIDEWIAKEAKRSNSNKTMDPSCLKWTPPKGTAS

SMILES | IC50 (TIP60-KAT5) | IC50 (HBO-KAT7) | IC50 (MOZ-KAT6A)
CCc1ccc(OC)c(S(=O)(=O)Nc2noc3cc(OCC4CC4)ccc23)c1 [Example 134] | 51.5 µM | 27.6 µM | 6.45 µM
CCc1ccc(OC)c(S(=O)(=O)Nc2noc3ccc(CO)cc23)c1 [Example 229] | > 125 µM | 115 µM | 85 µM
COCc1ccccc1S(=O)(=O)Nc1noc2cccc(Cl)c12 [Example 1, N-(4-chlorobenzo [d]isoxazol-3-yl)-2-(methoxymethyl) benzenesulfonamide] | > 125 µM | 53.9 µM | 91.4 µM
COc1cccc(OC)c1S(=O)(=O)Nc1noc2cc(-n3nc(C)cc3C)ccc12 [Example 105] | > 125 µM | 63.2 µM | 2.9 µM
COc1cccc2onc(NS(=O)(=O)c3cccc4c(C)ccnc34)c12 [Example 79, N-(4-methoxybenzo[d]isoxazol-3-yl)-4-methyl quinoline-8-sulfonamide] | 17.5 µM | 4.06 µM | 13.9 µM
COc1ccc(C(F)(F)F)c(OC)c1S(=O)(=O)Nc1noc2cccc(OC)c12 [Example 101, 2,6-Dimethoxy-N-(4-methoxybenzo[d]isoxazol-3-yl)-3-(trifluoromethyl)benzenesulfonamide] | 98.2 µM | 32.8 µM | 3.8 µM
CCc1ccc(OC)c(S(=O)(=O)Nc2noc3ccc(CC)c(Cl)c23)c1 [Example 206] | 6.36 µM | 0.626 µM | 0.302 µM
CCc1ccc(S(=O)(=O)Nc2noc3ccccc23)cc1 [Example 53, N-(benzo[d]isoxazol-3-yl)-4-ethylbenzene sulfonamide] | > 125 µM | > 125 µM | 90.7 µM
CCc1ccc(OC)c(S(=O)(=O)Nc2noc3c(F)cccc23)c1 [Example 152] | 38.9 µM | 9.87 µM | 6.28 µM
COc1cccc2onc(NS(=O)(=O)c3ccc4c(c3)CCCC4)c12 [Example 84, N-(4-methoxybenzo[d]isoxazol-3-yl)-5,6,7,8-tetrahydro-naphthalene-2-sulfonamide] | 50.5 µM | 20 µM | 18.7 µM
O=S(=O)(Nc1noc2ccccc12)c1ccc(Cl)c(Cl)c1 [Example 61, N-(benzo[d]isoxazol-3-yl)-3,4-dichlorobenzene-sulfonamide] | 85.4 µM | > 125 µM | 51.9 µM
CCc1ccc(OC)c(S(=O)(=O)Nc2noc3c(-c4cncnc4)cccc23)c1 [Example 192, 5-Ethyl-2-methoxy-N-(7-(pyrimidin-5-yl)benzo[d]isoxazol-3-yl)benzenesulfonamide] | 29.9 µM | 24.2 µM | 9.39 µM
CCc1ccc(OC)c(S(=O)(=O)Nc2noc3ccc(CNC(=O)OC)cc23)c1 [Example 227, Methyl ((3-((5-ethyl-2-methoxyphenyl)sulfonamido)benzo[d]isoxazol-5-yl)methyl) carbamate] | > 125 µM | 63.1 µM | 41.5 µM
O=S(=O)(Nc1noc2cccc(Cl)c12)c1ccc(OC(F)(F)F)cc1 [Example 23, N-(4-chlorobenzo [d]isoxazol-3-yl)-4-(trifluoromethoxy) benzenesulfonamide] | 72.9 µM | 23.9 µM | 21.8 µM
CCc1ccc(OC)c(S(=O)(=O)Nc2noc3cc(-c4ccccn4)ccc23)c1 [Example 140, 5-Ethyl-2-methoxy-N-(6-(pyridin-2-yl)benzo[d]isoxazol-3-yl)benzenesulfonamide] | 47.8 µM | 9.9 µM | 2.26 µM
O=S(=O)(Nc1noc2cccc(Cl)c12)c1ccc2nc(O)oc2c1 [Example 8, N-(4-chlorobenzo [d]isoxazol-3-yl)-2-hydroxybenzo[d]oxazole-6-sulfonamide] | > 125 µM | > 125 µM | 113 µM
COc1cc(C)cc(-c2cc(OC)c3c(NS(=O)(=O)c4c(OC)cccc4OC)noc3c2)c1 [Example 248, 2,6-Dimethoxy-N-(4-methoxy-6-(3-methoxy-5-methylphenyl)benzo[d]isoxazol-3-yl)benzenesulfonamide] | 9.33 µM | 0.375 µM | 0.139 µM
COc1c(S(=O)(=O)Nc2noc3cccc(Cl)c23)ccc(Cl)c1Cl [Example 3, 3,4-dichloro-N-(4-chlorobenzo[d]isoxazol-3-yl)-2-methoxy benzenesulfonamide] | 65.1 µM | 23.2 µM | 23.8 µM
CCc1ccc(OC)c(S(=O)(=O)Nc2noc3c(C(=O)NC)cccc23)c1 [Example 184, 3-(5-Ethyl-2-methoxyphenylsulfonamido)-N-methylbenzo[d]isoxazole-7-carboxamide] | > 125 µM | 31 µM | > 125 µM
CCc1ccc(OC)c(S(=O)(=O)Nc2noc3ccc(Cn4cccn4)cc23)c1 [Example 225] | > 125 µM | 31.1 µM | 3.62 µM

SMILES | IC50 (TIP60-KAT5) | IC50 (HBO-KAT7) | IC50 (MOZ-KAT6A)
COc1ccc(C)cc1S(=O)(=O)Nc1noc2ccccc12 [Example 47, N-(benzo[d]isoxazol-3-yl)-2-methoxy-5-methyl benzene sulfonamide] | 123 µM | 29.4 µM | 12.9 µM
CCc1cc2c(c(S(=O)(=O)Nc3noc4cccc(Cl)c34)c1)OCC2 [Example 181, N-(4-Chlorobenzo[d]isoxazol-3-yl)-5-ethyl-2,3-dihydrobenzofuran-7-sulfonamide] | 23.8 µM | 5.14 µM | 1.06 µM
CCc1ccc(OC)c(S(=O)(=O)Nc2noc3ccc(Br)cc23)c1 [Example 135] | 4.79 µM | 1.43 µM | 0.563 µM
COc1ccc(S(=O)(=O)Nc2noc3cccc(OC)c23)c(OC)c1 [Example 76, 2,4-dimethoxy-N-(4-methoxybenzo [d]isoxazol-3-yl)benzene sulfonamide] | 2.58 µM | 0.937 µM | 0.688 µM
COc1cccc(OC)c1S(=O)(=O)Nc1noc2cc(-c3ccccn3)c(C)cc12 [Example 241, 2,6-Dimethoxy-N-(5-methyl-6-(pyridin-2-yl)benzo[d]isoxazol-3-yl)benzenesulfonamide] | 26.3 µM | 2.51 µM | 0.157 µM
COc1cccc(OC)c1S(=O)(=O)Nc1noc2ccc(C)cc12 [Example 104, 2,6-Dimethoxy-N-(5-methylbenzo[d]isoxazol-3-yl)benzenesulfonamide] | 28.1 µM | 3.13 µM | 0.786 µM
CCc1ccc(OC)c(S(=O)(=O)Nc2noc3ccccc23)c1 [Example 63, N-(benzo[d]isoxazol-3-yl)-5-ethyl-2-methoxy benzene-sulfonamide] | > 125 µM | 60.1 µM | 2.56 µM
COc1cc(C#N)cc(-c2cc(OC)c3c(NS(=O)(=O)c4c(OC)cccc4OC)noc3c2)c1 [Example 251] | 47 µM | 0.473 µM | 1.16 µM
O=S(=O)(Nc1noc2ccccc12)c1ccc2ccccc2c1 [Example 66, N-(benzo[d]isoxazol-3-yl)naphthalene-2-sulfonamide] | 123 µM | 114 µM | 14.6 µM
CCc1ccc(OC)c(S(=O)(=O)Nc2noc3c(C4CCCCC4)cccc23)c1 [Example 190] | 19.9 µM | 18.5 µM | 9.73 µM
O=S(=O)(Nc1noc2cccc(Cl)c12)c1ccc2c(c1)CCCC2 [Example 42, N-(4-chlorobenzo [d]isoxazol-3-yl)-5,6,7,8-tetrahydronaphthalene-2-sulfonamide] | 11.6 µM | 8.38 µM | 5.95 µM
CCc1ccc(CC)c(S(=O)(=O)Nc2noc3ccccc23)c1 [Example 56, N-(benzo[d]isoxazol-3-yl)-2,5-diethylbenzene sulfonamide] | > 125 µM | > 125 µM | 72.8 µM
O=S(=O)(Nc1noc2cccc(Cl)c12)c1cccc2nonc12 [Example 16, N-(4-chlorobenzo [d]isoxazol-3-yl)benzo[c][1,2,5]oxadiazole-4-sulfonamide] | 30.2 µM | 9.63 µM | 15.1 µM
COc1ccc(F)cc1S(=O)(=O)Nc1noc2cccc(Cl)c12 [Example 5, N-(4-chlorobenzo [d]isoxazol-3-yl)-5-fluoro-2-methoxybenzene sulfonamide] | 114 µM | 6.01 µM | 31.3 µM
COc1ccc(-c2cc(OC)c3c(NS(=O)(=O)c4c(OC)cccc4OC)noc3c2)cn1 [Example 247, 2,6-Dimethoxy-N-(4-methoxy-6-(6-methoxypyridin-3-yl)benzo[d]isoxazol-3-yl)benzenesulfonamide] | 96.6 µM | 5.9 µM | 3.48 µM
Cc1ccc(S(=O)(=O)Nc2noc3cccc(Cl)c23)cc1Cl [Example 31, 3-chloro-N-(4-chlorobenzo[d]isoxazol-3-yl)-4-methylbenzenesulfonamide] | > 125 µM | 53.6 µM | 36.1 µM
CCc1ccc(OC)c(S(=O)(=O)Nc2noc3c(C(=O)N(C)C)cccc23)c1 [Example 185, 3-(5-Ethyl-2-methoxyphenylsulfonamido)-N,N-dimethylbenzo[d]isoxazole-7-carboxamide] | > 125 µM | 60.7 µM | 105 µM
CC(C)Oc1ccc(S(=O)(=O)Nc2noc3cccc(Cl)c23)cc1 [Example 24, N-(4-chlorobenzo [d]isoxazol-3-yl)-4-isopropoxybenzene sulfonamide] | > 125 µM | 33.9 µM | > 125 µM
CC(C)c1ccc(S(=O)(=O)Nc2noc3cccc(Cl)c23)cc1 [Example 22, N-(4-chlorobenzo [d]isoxazol-3-yl)-4-isopropylbenzene sulfonamide] | 38.9 µM | 6.3 µM | 5.21 µM
CCc1ccc(OC)c(S(=O)(=O)Nc2noc3cc(-c4cnn(C)c4)ccc23)c1 [Example 196, 5-Ethyl-2-methoxy-N-(6-(1-methyl-1H-pyrazol-4-yl)benzo[d]isoxazol-3-yl)benzenesulfonamide] | 95.4 µM | 23.3 µM | 13.9 µM
